Laboratory results taken from patent US10736923B2, “Methods and compositions for generating chondrocyte lineage cells and/or cartilage like tissue” (UNIVERSITY HEALTH NETWORK, priority 2013, dated 2020).

Key:
Format in all cases: cell-based, human
[1] = tested on: hPSC-derived paraxial mesoderm; assay: Chondrocyte specification in micromass culture with TGFB3 or BMP4 (histology, scatter flow cytometry, qRT-PCR, immunostaining)
Text: FIG. 4. TGFB3 and BMP4 specify chondrocytes and cartilage-like tissues with articular cartilage and growth plate cartilage phenotypes. (A) Micrographs of 5 week old micromasses derived with TGFB3 or BMP4, 20× magnification. (B) Tissue histology (stained with toluidine blue) of 13 week cartilage tissues derived with TGFB3 or BMP4. […] (C) Flow cytometric analysis of forward and side cell scatter parameters of 3 week and 5 week old micromasses. Side scatter indicates cell granularity and forward cell scatter indicates cell size. (D) Comparison of hPSC-derived micromass tissues to fetal primary chondrocyte derived micromass tissues and the developing human fetal femur cartilage. Articular cartilage regions appear to have smaller cells in size compared to growth plate like regions, which contain cells which appear enlarged (hypertrophic). Cartilage tissues in micromass as well as in the fetal femur stain uniformly with the toluidine blue stain (images are pink/purple in color and indicate the presence of cartilage proteins). The BMP4-treated micromass tissues contain a large number of enlarged cells which is similar to the bottom panel of the fetal cartilage which represents a growth plate cartilage. TGFB3 treated micromass cultures contain fewer, if any, enlarged chondrocytes, and appear similar to the upper panel of the fetal cartilage which is the site of articular cartilage. (E) Micrograph using GDF5 instead of BMP4 to generate hypertrophic chondrocytes. (F) Histological analyses of cartilage tissues derived from hiPSCs stained with Toluidine blue after 12 weeks. (G,H) Immunohistochemical staining of hESC-derived cartilage tissues for type II Collagen (G, 8 week tissues), and lubricin (H, 12 week tissues).
FIG. 5. Gene expression analyses of chondrocyte specification in the presence of TGFB3 or BMP4 during stages 3 and 4 of differentiation respectively. General chondrocyte genes Sox9 (A) and collagen 2 (B), hypertrophic genes collagen 10 (C), Runx2 (D), osterix (E) and alkaline phosphatase (F), articular cartilage associated genes lubricin (G) and cartilage intermediate layer protein 2 (CILP2) (H), interzone-related (joint progenitor) genes GDF5 (I), ERG (J) and Wnt9a (K). Expression is copy number relative to TBP (n=3 to 8 biological replicates) and is compared to primary fetal chondrocytes (aged 16 to 19 weeks, n=4), primary healthy adult articular chondrocytes (n=2), and growth plate-like chondrocytes isolated from the iliac crest of an adult (n=1). T15 Mesoderm indicates day 15 hESC-derived paraxial mesoderm (DM+FGF-treated). Error bars indicate s.e.m.
FIG. 8. TGFβ1, TGFβ2, and TGFβ3 generated articular chondrocytes from hPSC-derived paraxial mesoderm. COL2A1, lubricin, and CILP2 gene expression after 12 weeks of micromass culture in the presence of TGF agonists as indicated (10 ng/ml). Values represent copy number mRNA relative to TBP. Error bars indicate s.e.m.
Previous studies have shown that TGFBeta/BMP signaling is required to generate chondrocyte progenitors from paraxial mesoderm. […] Following 10 days of TGFb3 treatment (day 25 total), cultures could be switched to media containing BMP4 or maintained in TGFb3 (stage 4) in order to specify subsets of chondrocytes (articular/non-hypertrophic or growth plate/hypertrophic). To determine the chondrocyte potential of the day 15 mesoderm populations, the cells were plated at high cell density in a 20 microliter volume on tissue culture treated Petri dishes for an hour (micromass) and then the ‘spot’ was submerged/covered with media. In our initial studies, the cells were ‘spotted’ in a media containing 2% fetal bovine serum. However, this short serum exposure can be omitted with no effects on cartilage formation at later stages, making this protocol optionally serum-free. After 2 to 3 days, serum-free media containing TGFb3 is added to the culture to generate chondrocyte progenitors. […]

[2] = tested on: hPSC-derived chondrocytes; assay: CD73 flow cytometry of hPSC-derived cartilage tissues; conditions: hPSC-derived cartilage tissues after 11 weeks
Text: (§1) FIG. 6. CD73 is expressed by articular chondrocytes. Flow cytometric analyses of primary chondrocytes (A) Healthy adult articular chondrocytes and iliac crest GPC-like chondrocytes, (B) Primary fetal chondrocytes, primary (C) or passaged (passage (P)2, D) fetal chondrocytes after 9 to 10 weeks of micromass culture in the presence of TGFB3 or BMP4, and (E) hPSC-derived chondrocytes after 11 weeks derived in the presence of TGFB3 or BMP4. (F) Time course of CD73 and PDGFR-beta cells surface expression on T12 and T15 paraxial mesoderm populations, and micromass cultures treated with TGFB3 after 3 days, 10 days, and 2 weeks. (G) Time course of CD73 expression on TGFB3-treated micromasses after 3 days, 7 days, 10 days, and 2 to 5 weeks.
Primary (P0) and passaged (P2) fetal chondrocytes can also be cultured in micromass with TGFB3 or BMP4, similar to how hPSC-derived cartilage tissues are formed. TGFB3-treated fetal P0-derived or fetal P2-derived cartilage tissues contain over 93% CD73 positive cells, while BMP4 treatment reduces the percentage of CD73+ cells to 70% and 61% respectively (FIG. 6C,D). CD73 expression is also expressed by over 98% of hPSC-derived cartilage tissues derived with TGFB3-treatment (FIG. 6E). The percentage of CD73+ cells is reduced to only about 57% of cells after BMP4-treatment. […]

[3] = tested on: fetal chondrocytes; assay: CD73 flow cytometry of fetal chondrocytes in micromass culture; conditions: 9 to 10 weeks of micromass culture
Text: as §1
Primary (P0) and passaged (P2) fetal chondrocytes can also be cultured in micromass with TGFB3 or BMP4, similar to how hPSC-derived cartilage tissues are formed. TGFB3-treated fetal P0-derived or fetal P2-derived cartilage tissues contain over 93% CD73 positive cells, while BMP4 treatment reduces the percentage of CD73+ cells to 70% and 61% respectively (FIG. 6C,D). CD73 expression is also expressed by over 98% of hPSC-derived cartilage tissues derived with TGFB3-treatment (FIG. 6E). The percentage of CD73+ cells is reduced to only about 57% of cells after BMP4-treatment. Thus, CD73 marks primary healthy adult ACs, a proportion of healthy fetal chondrocytes, fetal chondrocytes or passaged fetal chondrocytes cultured as micromasses in TGFB3, and TGFB3-treated articular chondrocyte-like cells derived from human PSCs.

[4] = tested on: day 15 mesoderm populations; assay: Micromass assay of day 15 mesoderm populations
Procedure: FIG. 2. Characterization of paraxial mesoderm derived from hPSCs. Flow cytometric analysis of day 5 mesoderm treated with no additional factors (0 DM, no FGF), FGF, 4 μM DM, or 4 μM DM+FGF. Day 5 profiles depict KDR and PDGFRa expression, a double-positive population (gated) indicates mesoderm that has cardiac potential (20). Treatment with FGF results in less PDGFRa expression on day 5. (B) Expression of cell surface markers CD73, CD105, and PDGFR-beta on mesoderm populations on day 15 of differentiation. […] Experimental cell treatments during day 4 to day 6 include the combination of Dorsomorphin, bFGF, TGFbeta inhibitor (SB431542) in the presence or absence of the wnt pathway inhibitor IWP2. Flow cytometric analyses of CD73 and CD105, on day 15 mesoderm populations derived as indicated. (D) Gene expression analyses of day 15 mesoderm populations derived in indicated factors. Nkx2.5 is a cardiac transcription factor, Meox1 and Nkx3.2 are paraxial mesoderm and somite transcription factors. (E) Micrographs depicting 1 day old micromasses and 1 week old micromasses derived from day 15 mesoderm populations as indicated. (F) Flow cytometric analysis of cardiac troponin T (cTnT) expression in 1 week old micromasses derived from day 15 mesoderms as indicated. […] Previous studies have shown that TGFBeta/BMP signaling is required to generate chondrocyte progenitors from paraxial mesoderm. […] Following 10 days of TGFb3 treatment (day 25 total), cultures could be switched to media containing BMP4 or maintained in TGFb3 (stage 4) in order to specify subsets of chondrocytes (articular/non-hypertrophic or growth plate/hypertrophic). To determine the chondrocyte potential of the day 15 mesoderm populations, the cells were plated at high cell density in a 20 microliter volume on tissue culture treated Petri dishes for an hour (micromass) and then the ‘spot’ was submerged/covered with media. In our initial studies, the cells were ‘spotted’ in a media containing 2% fetal bovine serum. […]

[5] = tested on: primitive streak-like mesoderm population; assay: Paraxial mesoderm specification in monolayer culture, flow cytometry of cell surface markers
Procedure: FIG. 2. Characterization of paraxial mesoderm derived from hPSCs. Flow cytometric analysis of day 5 mesoderm treated with no additional factors (0 DM, no FGF), FGF, 4 μM DM, or 4 μM DM+FGF. Day 5 profiles depict KDR and PDGFRa expression, a double-positive population (gated) indicates mesoderm that has cardiac potential (20). Treatment with FGF results in less PDGFRa expression on day 5. (B) Expression of cell surface markers CD73, CD105, and PDGFR-beta on mesoderm populations on day 15 of differentiation. […] Experimental cell treatments during day 4 to day 6 include the combination of Dorsomorphin, bFGF, TGFbeta inhibitor (SB431542) in the presence or absence of the wnt pathway inhibitor IWP2. Flow cytometric analyses of CD73 and CD105, on day 15 mesoderm populations derived as indicated. (D) Gene expression analyses of day 15 mesoderm populations derived in indicated factors. Nkx2.5 is a cardiac transcription factor, Meox1 and Nkx3.2 are paraxial mesoderm and somite transcription factors. (E) Micrographs depicting 1 day old micromasses and 1 week old micromasses derived from day 15 mesoderm populations as indicated. (F) Flow cytometric analysis of cardiac troponin T (cTnT) expression in 1 week old micromasses derived from day 15 mesoderms as indicated. […] To generate chondrocytes, it is essential to first specify this PS population to a paraxial mesoderm fate. Previous studies have shown that mesoderm populations that express cell surface markers often found on mesenchymal stem cells, CD73 and CD105, have chondrogenic potential (Hwang, Kim et al. 2006). The expression of these two cell surface markers, as well as the expression of transcription factors Meox1 and Nkx3.2 combined with the lack of expression of Nkx2.5 to monitor the emergence of a paraxial mesoderm population was used. Previous experiments in the mouse ESC model system have shown the importance of inhibiting the BMP signaling pathway in the context of FGF signaling to prevent the emergence of cardiac mesoderm and promote the development of paraxial mesoderm (Craft, Ahmed et al. 2013). […] Very few cells in untreated mesoderm conditions expressed CD73 and CD105 (7.46%, FIG. 2B). […] The changes in expression of these surface markers were accompanied by the upregulation of paraxial genes Meox1 and Nkx3.2 (FIG. 2C). […] Thus, in some cell lines, the efficiency of paraxial mesoderm specification may be improved in the presence of a Wnt pathway antagonist immediately following the PS mesoderm induction phase.

[6] = tested on: day 15 mesoderm populations; assay: Gene expression analyses of day 15 mesoderm populations
Procedure: FIG. 2. Characterization of paraxial mesoderm derived from hPSCs. Flow cytometric analysis of day 5 mesoderm treated with no additional factors (0 DM, no FGF), FGF, 4 μM DM, or 4 μM DM+FGF. Day 5 profiles depict KDR and PDGFRa expression, a double-positive population (gated) indicates mesoderm that has cardiac potential (20). Treatment with FGF results in less PDGFRa expression on day 5. (B) Expression of cell surface markers CD73, CD105, and PDGFR-beta on mesoderm populations on day 15 of differentiation. […] Experimental cell treatments during day 4 to day 6 include the combination of Dorsomorphin, bFGF, TGFbeta inhibitor (SB431542) in the presence or absence of the wnt pathway inhibitor IWP2. Flow cytometric analyses of CD73 and CD105, on day 15 mesoderm populations derived as indicated. (D) Gene expression analyses of day 15 mesoderm populations derived in indicated factors. Nkx2.5 is a cardiac transcription factor, Meox1 and Nkx3.2 are paraxial mesoderm and somite transcription factors. (E) Micrographs depicting 1 day old micromasses and 1 week old micromasses derived from day 15 mesoderm populations as indicated. (F) Flow cytometric analysis of cardiac troponin T (cTnT) expression in 1 week old micromasses derived from day 15 mesoderms as indicated. […] To generate chondrocytes, it is essential to first specify this PS population to a paraxial mesoderm fate. […]

[7] = 8- to 12-week old tissue, versus tissue maintained in TGFb3

Substance: BMP4: Bone Morphogenetic Protein 4
- forward and side scatter of live cells (cell size, granularity) ([1]; 3 week and 5 week micromasses): larger forward scatter (FSC)
- chondrocyte morphology ([1]; 5 week old micromasses): round with cobblestone-like appearance
- COL10A1 expression [1, 7]: significantly higher
- RUNX2 expression [1, 7]: significantly higher
- SP7 expression [1, 7]: significantly higher
- alkaline phosphatase (ALP/ALPL) expression [1, 7]: significantly higher
- Lubricin protein (immunohistochemistry) ([1]; 12 week micromass tissue): not
- tissue histology (toluidine blue), chondrocyte size ([1]; 13 week old tissues, GDF5 instead of BMP4): enlarged hypertrophic chondrocytes
- cartilage tissue formation on direct plating of day 15 mesoderm ([1]; direct plating into BMP4 containing media, no TGFB3 stimulation): non-adherent cell aggregates that did not form cartilage tissue
- COL2A1 expression ([1]; qRT-PCR, by 2 weeks of culture): upregulated
- SOX9 expression ([1]; qRT-PCR, by 2 weeks of culture): upregulated
- CD73 positive cells [2]: about 57%
- CD73 positive cells ([3]; passaged (P2) fetal chondrocytes): 61%
- CD73 positive cells ([3]; primary (P0) fetal chondrocytes): 70%

Substance: bFGF: basic fibroblast growth factor, FGF agonist
- generation of cardiomyocytes (cTnT) ([4]; 1 week of micromass culture): did not generate any cardiomyocytes
- cartilage-like tissue formation ([4]; after 4 weeks of micromass culture, treatment in monolayer phase): did not maintain a cartilage tissue phenotype
- adherence and survival in micromass culture ([4]; first week of micromass culture): survived the first week of micromass culture as an adherent layer of cells
- expression patterns of PDGFRa and KDR ([5]; T5, versus untreated mesoderm, DM T4 to T6): did not change the PDGFRa/KDR population drastically
- proportion of cells expressing CD73 and CD105 ([5]; day 15, FGF day 4 to day 15, DM T4-T6): 52%
- PDGF receptor beta expression on CD73-positive cells ([5]; day 15 monolayers): also expressed the PDGF receptor beta
- Meox1 expression [6]: upregulation
- Nkx3.2 expression [6]: upregulation
